Assay results from PMC10866072, “Design, synthesis, molecular modelling and biological evaluation of novel 6-amino-5-cyano-2-thiopyrimidine derivatives as potent anticancer agents against leukemia and apoptotic inducers” (Journal of Enzyme Inhibition and Medicinal Chemistry, 2024).

Experiments:
[1] = tested on: K-562; format: cell-based; details: Homo sapiens, K562, one dose 10^-5 M, 48 h
[2] = tested on: MALME-3M; format: cell-based; details: Homo sapiens, one dose 10^-5 M, 48 h
[3] = tested on: BT-549; format: cell-based; details: Homo sapiens, one dose 10^-5 M, 48 h
[4] = tested on: SNB-19; format: cell-based; details: Homo sapiens, one dose 10^-5 M, 48 h, read-out: % growth
[5] = tested on: NCI-H522; format: cell-based; details: Homo sapiens, one dose 10^-5 M, 48 h
[6] = tested on: IGROV1; format: cell-based; details: Homo sapiens, IGROV-1, one dose 10^-5 M, 48 h, read-out: % growth
[7] = tested on: MDA-MB-435; format: cell-based; details: Homo sapiens, one dose 10^-5 M, 48 h, read-out: % growth
[8] = tested on: OVCAR-4; format: cell-based; details: Homo sapiens, one dose 10^-5 M, 48 h
[9] = tested on: OVCAR-3; format: cell-based; details: Homo sapiens, one dose 10^-5 M, 48 h
[10] = tested on: EKVX; format: cell-based; details: Homo sapiens, one dose 10^-5 M, 48 h
[11] = tested on: NCI-H460; format: cell-based; details: Homo sapiens, one dose 10^-5 M, 48 h, read-out: % growth
[12] = tested on: 786-0; format: cell-based; details: Homo sapiens, one dose 10^-5 M, 48 h
[13] = tested on: SR; format: cell-based; details: Homo sapiens, one dose 10^-5 M, 48 h
[14] = tested on: HOP-92; format: cell-based; details: Homo sapiens, one dose 10^-5 M, 48 h
[15] = tested on: M14; format: cell-based; details: Homo sapiens, one dose 10^-5 M, 48 h
[16] = tested on: UACC-257; format: cell-based; details: Homo sapiens, one dose 10^-5 M, 48 h
[17] = tested on: CCRF-CEM; format: cell-based; details: Homo sapiens, one dose 10^-5 M, 48 h
[18] = tested on: MCF7; format: cell-based; details: Homo sapiens, one dose 10^-5 M, 48 h, read-out: % growth
[19] = tested on: UO-31; format: cell-based; details: Homo sapiens, UO-31, 48 h, one dose 10^-5 M, 48 h
[20] = tested on: HCC-2998; format: cell-based; details: Homo sapiens, one dose 10^-5 M, 48 h
[21] = tested on: SK-MEL-5; format: cell-based; details: Homo sapiens, one dose 10^-5 M, 48 h, read-out: % growth
[22] = tested on: HT29; format: cell-based; details: Homo sapiens, HT-29, one dose 10^-5 M, 48 h
[23] = tested on: full NCI 60 cell lines panel; details: for activity at 10 µM: Homo sapiens, 60 cell, 48 h, read-out: Mean % growth; for activity on all 60 cancer cell lines tested (in words): one dose
[24] = tested on: HOP-62; format: cell-based; details: Homo sapiens, one dose 10^-5 M, 48 h
[25] = tested on: MDA-MB-468; format: cell-based; details: Homo sapiens, one dose 10^-5 M, 48 h
[26] = tested on: A549/ATCC; format: cell-based; details: Homo sapiens, one dose 10^-5 M, 48 h
[27] = tested on: NCI-H23; format: cell-based; details: Homo sapiens, one dose 10^-5 M, 48 h, read-out: % growth
[28] = tested on: SN12C; format: cell-based, human; details: Homo sapiens, one dose 10^-5 M, 48 h
[29] = tested on: TK-10; format: cell-based; details: Homo sapiens, one dose 10^-5 M, 48 h
[30] = tested on: SF-539; format: cell-based; details: Homo sapiens, one dose 10^-5 M, 48 h
[31] = tested on: A498; format: cell-based; details: Homo sapiens, one dose 10^-5 M, 48 h
[32] = tested on: ACHN; format: cell-based; details: Homo sapiens, one dose 10^-5 M, 48 h
[33] = tested on: SF-268; format: cell-based; details: Homo sapiens, one dose 10^-5 M, 48 h, read-out: % growth
[34] = tested on: CAKI-1; format: cell-based; details: Homo sapiens, CAKI-1, 48 h, one dose 10^-5 M, 48 h
[35] = tested on: RPMI-8226; format: cell-based; details: Homo sapiens, one dose 10^-5 M, 48 h
[36] = tested on: NCI/ADR-RES; format: cell-based; details: Homo sapiens, one dose 10^-5 M, 48 h
[37] = tested on: LOX IMVI; format: cell-based; details: Homo sapiens, one dose 10^-5 M, 48 h, read-out: % growth
[38] = tested on: SK-OV-3; format: cell-based; details: Homo sapiens, one dose 10^-5 M, 48 h
[39] = tested on: HL-60(TB); format: cell-based; details: Homo sapiens, one dose 10^-5 M, 48 h
[40] = tested on: HCT-15; format: cell-based; details: Homo sapiens, one dose 10^-5 M, 48 h, read-out: % growth
[41] = tested on: U251; format: cell-based; details: Homo sapiens, U-251, one dose 10^-5 M, 48 h
[42] = tested on: COLO 205; format: cell-based; details: Homo sapiens, one dose 10^-5 M, 48 h
[43] = tested on: OVCAR-5; format: cell-based; details: Homo sapiens, one dose 10^-5 M, 48 h
[44] = tested on: SK-MEL-28; format: cell-based; details: Homo sapiens, one dose 10^-5 M, 48 h
[45] = tested on: HCT-116; format: cell-based; details: Homo sapiens, one dose 10^-5 M, 48 h, read-out: % growth
[46] = tested on: SNB-75; format: cell-based; details: Homo sapiens, one dose 10^-5 M, 48 h
[47] = tested on: SW-620; format: cell-based; details: Homo sapiens, one dose 10^-5 M, 48 h
[48] = tested on: HS 578T; format: cell-based; details: Homo sapiens; one dose 10^-5 M, 48 h; HS 578T; read-out: % growth
[49] = tested on: NCI-H226; format: cell-based; details: Homo sapiens, one dose 10^-5 M, 48 h
[50] = tested on: SK-MEL-2; format: cell-based; details: Homo sapiens, one dose 10^-5 M, 48 h
[51] = tested on: DU-145; format: cell-based; details: Homo sapiens, one dose 10^-5 M, 48 h
[52] = tested on: OVCAR-8; format: cell-based; details: Homo sapiens, one dose 10^-5 M, 48 h
[53] = tested on: UACC-62; format: cell-based; details: Homo sapiens, one dose 10^-5 M, 48 h
[54] = tested on: SF-295; format: cell-based; details: Homo sapiens, one dose 10^-5 M, 48 h
[55] = tested on: MDA-MB-231/ATCC; format: cell-based; details: Homo sapiens, one dose 10^-5 M, 48 h
[56] = tested on: KM12; format: cell-based; details: Homo sapiens, one dose 10^-5 M, 48 h
[57] = tested on: MOLT-4; format: cell-based; details: Homo sapiens, one dose 10^-5 M, 48 h, read-out: % growth
[58] = tested on: PC-3; format: cell-based; details: Homo sapiens, one dose 10^-5 M, 48 h
[59] = tested on: T-47D; format: cell-based; details: Homo sapiens, T47D, one dose 10^-5 M, 48 h, read-out: % growth

## CN(C)c1ccc(-c2nc(S)nc(N)c2C(=N)NN=Cc2ccc(Br)cc2)cc1 [Compound 4e, 4-amino-N'-[(4-bromophenyl)methylene]-6-[4-(dimethylamino)phenyl]-2-mercapto pyrimidine-5-carboximidohydrazide]
[1]
  % growth at 10 µM: 99.6%
[2]
  % growth at 10 µM: 98.6%
[3]
  % cell growth at 10 µM: 107%
[4]
  activity at 10 µM: 99.4%
[5]
  % growth at 10 µM: 98.5%
[6]
  activity at 10 µM: 102%
[7]
  activity at 10 µM: 101%
[8]
  % growth at 10 µM: 102%
[9]
  % growth at 10 µM: 110%
[10]
  % cell growth at 10 µM: 98.6%
[11]
  activity at 10 µM: 107%
[12]
  % growth at 10 µM: 103%
[13]
  percent cell growth at 10 µM: 91.5%
[14]
  % growth at 10 µM: 112%
[15]
  % growth at 10 µM: 98.9%
[16]
  percent cell growth at 10 µM: 109%
[17]
  % cell growth at 10 µM: 88.8%
[18]
  activity at 10 µM: 93.9%
[19]
  % cell growth at 10 µM: 69.9%
[20]
  % growth at 10 µM: 112%
[21]
  activity at 10 µM: 101%
[22]
  % growth at 10 µM: 104%
[23]
  activity at 10 µM: 104%
  activity on all 60 cancer cell lines tested (in words): weak activity
[24]
  % growth at 10 µM: 108%
[25]
  percent cell growth at 10 µM: 111%
[26]
  % growth at 10 µM: 108%
[27]
  activity at 10 µM: 99.3%
[28]
  % growth at 10 µM: 102%
[29]
  % cell growth at 10 µM: 115%
[30]
  % growth at 10 µM: 101%
[31]
  % growth at 10 µM: 118%
[32]
  % growth at 10 µM: 105%
[33]
  activity at 10 µM: 101%
[34]
  % growth at 10 µM: 99.6%
[35]
  % growth at 10 µM: 84.4%
[36]
  cell growth percent at 10 µM: 102%
[37]
  activity at 10 µM: 98.6%
[38]
  % growth at 10 µM: 124%
[39]
  % growth at 10 µM: 91.6%
[40]
  activity at 10 µM: 102%
[41]
  % growth at 10 µM: 112%
[42]
  % growth at 10 µM: 161%
[43]
  percent cell growth at 10 µM: 104%
[44]
  % cell growth at 10 µM: 104%
[45]
  activity at 10 µM: 101%
[46]
  % growth at 10 µM: 114%
[47]
  % growth at 10 µM: 107%
[48]
  activity at 10 µM: 108%
[49]
  % growth at 10 µM: 95.7%
[50]
  % growth at 10 µM: 107%
[51]
  % growth at 10 µM: 109%
[52]
  % growth of cells at 10 µM: 113%
[53]
  % growth at 10 µM: 94%
[54]
  % cell growth at 10 µM: 104%
[55]
  % growth at 10 µM: 102%
[56]
  % growth at 10 µM: 110%
[57]
  activity at 10 µM: 103%
[58]
  percent cell growth at 10 µM: 91%
[59]
  activity at 10 µM: 97.5%

## CN(C)c1ccc(-c2nc(S)nc(N)c2C(=N)NN=Cc2ccc(Cl)cc2Cl)cc1 [Compound 4f, 4-amino-N'-[(2,4-dichlorophenyl)methylene]-6-[4-(dimethylamino)phenyl]-2-mercapto pyrimidine-5-carboximidohydrazide]
[1]
  % growth at 10 µM: 70.2%
[2]
  % growth at 10 µM: 96.8%
[3]
  % cell growth at 10 µM: 119%
[4]
  activity at 10 µM: 90.4%
[5]
  % growth at 10 µM: 97.2%
[6]
  activity at 10 µM: 102%
[7]
  activity at 10 µM: 91.8%
[8]
  % growth at 10 µM: 104%
[9]
  % growth at 10 µM: 110%
[10]
  % cell growth at 10 µM: 102%
[11]
  activity at 10 µM: 116%
[12]
  % growth at 10 µM: 84.9%
[13]
  percent cell growth at 10 µM: 73.2%
[14]
  % growth at 10 µM: 106%
[15]
  % growth at 10 µM: 103%
[16]
  percent cell growth at 10 µM: 109%
[17]
  % cell growth at 10 µM: 83.7%
[18]
  activity at 10 µM: 75.3%
[19]
  % cell growth at 10 µM: 70.2%
[20]
  % growth at 10 µM: 115%
[21]
  activity at 10 µM: 99.3%
[22]
  % growth at 10 µM: 107%
[23]
  activity at 10 µM: 98.9%
  activity on all 60 cancer cell lines tested (in words): weak activity
[24]
  % growth at 10 µM: 103%
[25]
  percent cell growth at 10 µM: 113%
[26]
  % growth at 10 µM: 107%
[27]
  activity at 10 µM: 99.6%
[28]
  % growth at 10 µM: 93.7%
[29]
  % cell growth at 10 µM: 114%
[30]
  % growth at 10 µM: 81.6%
[31]
  % growth at 10 µM: 114%
[32]
  % growth at 10 µM: 107%
[33]
  activity at 10 µM: 100%
[34]
  % growth at 10 µM: 102%
[35]
  % growth at 10 µM: 80.6%
[36]
  cell growth percent at 10 µM: 101%
[37]
  activity at 10 µM: 83.3%
[38]
  % growth at 10 µM: 125%
[39]
  % growth at 10 µM: 88.4%
[40]
  activity at 10 µM: 76.7%
[41]
  % growth at 10 µM: 93.2%
[42]
  % growth at 10 µM: 166%
[43]
  percent cell growth at 10 µM: 107%
[44]
  % cell growth at 10 µM: 104%
[45]
  activity at 10 µM: 67.7%
[46]
  % growth at 10 µM: 109%
[47]
  % growth at 10 µM: 100%
[48]
  activity at 10 µM: 96.8%
[49]
  % growth at 10 µM: 95.5%
[50]
  % growth at 10 µM: 108%
[51]
  % growth at 10 µM: 111%
[52]
  % growth of cells at 10 µM: 106%
[53]
  % growth at 10 µM: 92.3%
[54]
  % cell growth at 10 µM: 92.7%
[55]
  % growth at 10 µM: 99.5%
[56]
  % growth at 10 µM: 77.5%
[57]
  activity at 10 µM: 100%
[58]
  percent cell growth at 10 µM: 89.8%
[59]
  activity at 10 µM: 104%
